ChEMBL document CHEMBL2157896, “Engineering pH-gated transitions for selective and efficient double-strand DNA photocleavage in hypoxic tumors” (J Med Chem, 2011)
Activity calls are given as the source filed them. The rule behind the calls is not given here.

Assays:
Nucleic Acid [1] = assay: Induction of DNA cleavage in Escherichia coli pBR322 assessed as form3/form2 ratio at 15 uM at pH 6 to 9 after 10 mins of UV irradiation; type: nucleic-acid assay
Nucleic Acid [2] = assay: Induction of photochemical DNA cleavage in Escherichia coli pBR322 assessed as form I level at 15 uM in pH 6.0 phosphate buffer measured after 2 mins of UV irradiation; type: nucleic-acid assay
Nucleic Acid [3] = assay: Induction of photochemical DNA cleavage in Escherichia coli pBR322 assessed as form 2 level at 15 uM in pH 8.0 phosphate buffer measured after 6 mins of UV irradiation; type: nucleic-acid assay
Nucleic Acid [4] = assay: Induction of photochemical DNA cleavage in Escherichia coli pBR322 assessed as form 3 level at 15 uM in pH 6.0 phosphate buffer measured after 8 mins of UV irradiation; type: nucleic-acid assay
Nucleic Acid [5] = assay: Induction of photochemical DNA cleavage in Escherichia coli pBR322 assessed as form 2 level at 15 uM in pH 6.0 phosphate buffer measured after 8 mins of UV irradiation; type: nucleic-acid assay
Nucleic Acid [6] = assay: Induction of photochemical DNA cleavage in Escherichia coli pBR322 assessed as form I level at 15 uM in pH 7.0 phosphate buffer measured after 10 mins of UV irradiation; type: nucleic-acid assay
Nucleic Acid [7] = assay: Induction of photochemical DNA cleavage in Escherichia coli pBR322 assessed as form 2 level at 15 uM in pH 8.0 phosphate buffer measured after 4 mins of UV irradiation; type: nucleic-acid assay
Nucleic Acid [8] = assay: Induction of photochemical DNA cleavage in Escherichia coli pBR322 assessed as form 3 level at 15 uM in pH 6.0 phosphate buffer measured after 0.5 mins of UV irradiation; type: nucleic-acid assay
Nucleic Acid [9] = assay: Induction of DNA cleavage in Escherichia coli pBR322 at 15 uM in pH 6.0 phosphate buffer measured after of UV irradiation; type: nucleic-acid assay
Nucleic Acid [10] = assay: Induction of photochemical DNA cleavage in Escherichia coli pBR322 assessed as form 2 level at 15 uM in pH 6.0 phosphate buffer measured after 2 mins of UV irradiation; type: nucleic-acid assay
Nucleic Acid [11] = assay: Induction of photochemical DNA cleavage in Escherichia coli pBR322 assessed as form 3 level at 15 uM in pH 8.0 phosphate buffer measured after 4 mins of UV irradiation; type: nucleic-acid assay
A-375 = assay: Drug uptake in human A375 cells at 30 uM incubated for 30 mins by fluorescence microscopy; type: ADME, cell-based; settings: a-375, 0.5 h
Nucleic Acid [12] = assay: Induction of photochemical DNA cleavage in Escherichia coli pBR322 assessed as form I level at 15 uM in pH 6.0 phosphate buffer measured after 8 mins of UV irradiation; type: nucleic-acid assay
Nucleic Acid [13] = assay: Induction of photochemical DNA cleavage in Escherichia coli pBR322 assessed as form I level at 15 uM in pH 7.0 phosphate buffer measured after 8 mins of UV irradiation; type: nucleic-acid assay
Nucleic Acid [14] = assay: Induction of photochemical DNA cleavage in Escherichia coli pBR322 assessed as disappearance of supercoiled DNA at 15 uM in pH 6.0 phosphate buffer after 10 mins of UV irradiation; type: nucleic-acid assay
Nucleic Acid [15] = assay: Induction of photochemical DNA cleavage in Escherichia coli pBR322 assessed as disappearance of supercoiled DNA at 15 uM in pH 8.0 phosphate buffer after 10 mins of UV irradiation; type: nucleic-acid assay
Nucleic Acid [16] = assay: Induction of photochemical DNA cleavage in Escherichia coli pBR322 assessed as form 3 level at 15 uM in pH 7.0 phosphate buffer measured after 0.5 mins of UV irradiation; type: nucleic-acid assay
Nucleic Acid [17] = assay: Induction of photochemical DNA cleavage in Escherichia coli pBR322 assessed as form 2 level at 15 uM in pH 7.0 phosphate buffer measured after 4 mins of UV irradiation; type: nucleic-acid assay
Nucleic Acid [18] = assay: Induction of photochemical DNA cleavage in Escherichia coli pBR322 assessed as form I level at 15 uM in pH 8.0 phosphate buffer measured after 1 min of UV irradiation; type: nucleic-acid assay
Nucleic Acid [19] = assay: Induction of photochemical DNA cleavage in Escherichia coli pBR322 assessed as form 2 level at 15 uM in pH 7.0 phosphate buffer measured after 10 mins of UV irradiation; type: nucleic-acid assay
Nucleic Acid [20] = assay: Induction of photochemical DNA cleavage in Escherichia coli pBR322 assessed as form 3 level at 15 uM in pH 7.0 phosphate buffer measured after 4 mins of UV irradiation; type: nucleic-acid assay
Nucleic Acid [21] = assay: Induction of photochemical DNA cleavage in Escherichia coli pBR322 assessed as form 2 level at 15 uM in pH 7.0 phosphate buffer measured after 2 mins of UV irradiation; type: nucleic-acid assay
Nucleic Acid [22] = assay: Induction of photochemical DNA cleavage in Escherichia coli pBR322 assessed as form I level at 15 uM in pH 7.0 phosphate buffer measured after 0.5 mins of UV irradiation; type: nucleic-acid assay
Nucleic Acid [23] = assay: Induction of photochemical DNA cleavage in Escherichia coli pBR322 assessed as form I level at 15 uM in pH 8.0 phosphate buffer measured after 0.5 mins of UV irradiation; type: nucleic-acid assay
Nucleic Acid [24] = assay: Induction of photochemical DNA cleavage in Escherichia coli pBR322 assessed as form I level at 15 uM in pH 7.0 phosphate buffer measured after 6 mins of UV irradiation; type: nucleic-acid assay
Nucleic Acid [25] = assay: Induction of photochemical DNA cleavage in Escherichia coli pBR322 assessed as form I level at 15 uM in pH 8.0 phosphate buffer measured after 2 mins of UV irradiation; type: nucleic-acid assay
Nucleic Acid [26] = assay: Induction of photochemical DNA cleavage in Escherichia coli pBR322 assessed as disappearance of supercoiled DNA at 15 uM in pH 7.0 phosphate buffer after 10 mins of UV irradiation; type: nucleic-acid assay
Nucleic Acid [27] = assay: Induction of photochemical DNA cleavage in Escherichia coli pBR322 assessed as form 3 level at 15 uM in pH 8.0 phosphate buffer measured after 0.5 mins of UV irradiation; type: nucleic-acid assay
Nucleic Acid [28] = assay: Induction of photochemical DNA cleavage in Escherichia coli pBR322 assessed as form I level at 15 uM in pH 6.0 phosphate buffer measured after 4 mins of UV irradiation; type: nucleic-acid assay
Nucleic Acid [29] = assay: Induction of photochemical DNA cleavage in Escherichia coli pBR322 assessed as form 3 level at 15 uM in pH 7.0 phosphate buffer measured after 8 mins of UV irradiation; type: nucleic-acid assay
Nucleic Acid [30] = assay: Induction of DNA cleavage in Escherichia coli pBR322 at 10 uM in pH 6.0 phosphate buffer measured after of UV irradiation; type: nucleic-acid assay
Nucleic Acid [31] = assay: Induction of photochemical DNA cleavage in Escherichia coli pBR322 assessed as form 2 level at 15 uM in pH 7.0 phosphate buffer measured after 8 mins of UV irradiation; type: nucleic-acid assay
Nucleic Acid [32] = assay: Induction of DNA damage in human […] cells at 30 uM incubated for 3 hrs by single cell gel electrophoresis; type: cell-based
Nucleic Acid [33] = assay: Induction of photochemical DNA cleavage in Escherichia coli pBR322 assessed as form I level at 15 uM in pH 8.0 phosphate buffer measured after 10 mins of UV irradiation; type: nucleic-acid assay
Nucleic Acid [34] = assay: Induction of photochemical DNA cleavage in Escherichia coli pBR322 assessed as form 3 level at 15 uM in pH 6.0 phosphate buffer measured after 6 mins of UV irradiation; type: nucleic-acid assay

Ratio (Nucleic Acid [1]): 2
Activity (Nucleic Acid [2]): 17.3%
Activity (Nucleic Acid [3]): 59.2%
Activity (Nucleic Acid [4]): 65%
Activity (Nucleic Acid [5]): 35%
Activity (Nucleic Acid [6]): 11.7%
Activity (Nucleic Acid [7]): 41.4%
Activity (Nucleic Acid [8]): 13.5%
Activity (Nucleic Acid [9]): 159%
Activity (Nucleic Acid [10]): 54.2%
Activity (Nucleic Acid [11]): 0%
Drug uptake (A-375): Active
Activity (Nucleic Acid [12]): 0%
Activity (Nucleic Acid [13]): 20.9%
Activity (Nucleic Acid [14]): Active
Activity (Nucleic Acid [15]): Active
Activity (Nucleic Acid [16]): 0%
Activity (Nucleic Acid [17]): 52.4%
Activity (Nucleic Acid [18]): 83.9%
Activity (Nucleic Acid [19]): 47.8%
Activity (Nucleic Acid [20]): 25%
Activity (Nucleic Acid [21]): 41.5%
Activity (Nucleic Acid [22]): 64.6%
Activity (Nucleic Acid [23]): 86.4%
Activity (Nucleic Acid [24]): 24.7%
Activity (Nucleic Acid [25]): 77.8%
Activity (Nucleic Acid [26]): Active
Activity (Nucleic Acid [27]): 0%
Activity (Nucleic Acid [28]): 0%
Activity (Nucleic Acid [29]): 28.1%
Activity (Nucleic Acid [30]): 75%
Activity (Nucleic Acid [31]): 51%
Activity (Nucleic Acid [33]): 26.3%
Activity (Nucleic Acid [34]): 51.9%
SMILES: NCCCC[C@H](N)C(=O)NCCCC[C@H](N)C(=O)Nc1ccc(C#Cc2c(F)c(F)nc(F)c2F)cc1.O=C(O)C(F)(F)F
Activity (Nucleic Acid [32]): Active
